# In paper PMC8322070, “A novel orally active HDAC6 inhibitor T-518 shows a therapeutic potential for Alzheimer’s disease and tauopathy in mice” (Scientific Reports, 2021):
# Read-outs that look alike come from different tables or passages of the source.
# Legend:
# [1] = In vivo pharmacokinetics in plasma and hippocampus (LC-MS/MS); parameters: species or system C57BL mice; conditions: 3 mg/kg, po
# Description: (§1) T-518, ACY-738, Ricolinostat, and Tubastatin A were synthesized in Takeda. For in vitro cellular experiments, the compounds were solubilized with DMSO and diluted in the culture medium at the indicated concentrations. For in vivo experiments, the compound was reconstituted in 0.5% methylcellulose and administered orally at the indicated doses. After administration, mouse hippocampus was isolated and homogenized in RIPA extraction buffer (50 mM Tris–HCl, 150 mM NaCl, 1% NP-40, 0.5% sodium deoxycholate, and 0.1% SDS, pH 8.0) supplemented with protease and phosphatase inhibitor cocktail (Thermo Fischer, Waltham, MA, USA). The homogenate was centrifuged at 10,000g for 15 min and the supernatant was taken as the RIPA-soluble fraction.
# The compound concentration was measured by the method previously reported with modification. Briefly, the hippocampus tissues from treated mice were isolated and homogenized in 4 volumes of saline under ice-cold conditions and stored at − 80 °C until liquid chromatography-tandem mass spectrometry (LC–MS/MS) analysis. Before analysis, samples were thawed gently on ice and mixed with three volumes of acetonitrile. The acetonitrile mixtures were vortexed and centrifuged for supernatant collection. The supernatant was diluted in mobile phase A [10 mM ammonium formate and formic acid at 100:0.2 (v/v)] and injected into the LC/MS/MS system. T-518 was analyzed in multiple reaction monitoring mode using an API4000 or API5000 instrument (Applied Biosystems, Foster City, CA, USA) equipped with a Prominence Ultra-fast liquid chromatography system (Shimadzu, Kyoto, Japan) using Shimadzu Shim- pack XR-ODS (2.2 μm, 2.0 × 30 mm) column. Mobile phase B consisted of a mixture of acetonitrile and formic acid at 100:0.2 (v/v). Chromatographic separations were performed by gradient elution at a flow rate of 0.7 mL/min. Mobile phase B was held at 5% for 0.2 min, increased linearly to 99% for 1.1 min, maintained at 99% for 0.7 min, then returned to 5% in 0.01 min, followed by re-equilibration for 0.59 min. A multiple reaction monitoring was used to detect the parent and product ions for the tandem mass spectrometry of T-518, which were corresponding to m/z 494 and m/z 374, respectively, with the negative ion mode [DP; -40, EP; -10, CE; -35, CXP; -15 (arbitrary units)]. Analyst software TM (version 1.6.2) (AB SCIEX, Framingham, MA; https://sciex.com/products/software/analyst-software) was used for data acquisition and processing.
# P301S tau Tg mice = test: Novel object recognition test; assay type: in vivo, mouse; conditions: 1 and 3 mg/kg for 2 weeks
# Description: as §1
# The effect of T-518 on behavioral function was examined using the novel object recognition test: The box and objects used were purchased from BrainScience Idea (Osaka, Japan). The 30 × 30 × 35 cm gray-colored test box was used. The two objects used were pyramidal, white-colored, and ceramic (object A and A′) and cylindrical, silver, and aluminum (object B). In the acquisition phase, the identical objects (objects A and A′) were symmetrically placed in the box. Each animal was placed in the box for 5 min followed by a 24-h retention interval in the home cage. […] Time spent exploring the objects were measured during both phases. […]
compound,measurement,setting,value
"O=C1c2cc(-c3nnc(C(F)F)o3)cnc2CN1[C@@H]1CCCC[C@H]1NC(=O)C(F)(F)C(F)(F)F [T-518, N-[(1R,2R)-2-{3-[5-(difluoromethyl)-1,3,4-oxadiazol-2-yl]-5-oxo-5H,6H,7H-pyrrolo[3,4-b]pyridin-6-yl}cyclohexyl]-2,2,3,3,3-pentafluoropropanamide]",average exposure in 24 h in hippocampus,"[1]; Fu,b 0.4",~17 nM
same,Hippocampus AUC0–24 h,[1]; C57BL mice,202 ng·h/g
same,Cmax,"[1]; C57BL, mouse, hippocampus, Fu,b 0.4, read-out: Effective Cmax in hippocampus",~0.291 µM
same,Tmax,"[1]; C57BL, mouse, plasma and hippocampus, matrix not given, read-out: Tmax of a single oral dose",≤ 15 min
same,Cmax,"[1]; mouse, hippocampus, C57BL mice, read-out: Hippocampus Cmax",144 ng/g
same,MRT,"[1]; mouse, hippocampus, C57BL mice, read-out: Hippocampus MRT",79.8 min
same,Tmax,"[1]; mouse, hippocampus, C57BL mice, read-out: Hippocampus Tmax",15 min
same,AUC(0-t),"[1]; mouse, plasma, C57BL mice, read-out: Plasma AUC0–24 h",1.72 µg·h/mL
same,Cmax,"[1]; mouse, plasma, C57BL mice, read-out: Plasma Cmax",1.04 µg/mL
same,MRT,"[1]; mouse, plasma, C57BL mice, read-out: Plasma MRT",106 min
same,Tmax,"[1]; mouse, plasma, C57BL mice, read-out: Plasma Tmax",15 min
same,novel object recognition deficit (preference ratio),P301S tau Tg mice,dose-dependently ameliorated
